Assay results published in article PMC11401813, “Grewiifopenes A–K, bioactive clerodane diterpenoids from Casearia grewiifolia Vent” (Natural Products and Bioprospecting, 2024).
In brackets after ≈: the same amount, converted by molar mass. Read-outs that look alike come from different tables or passages of the source.

Legend:
[1] = test system: HeLa (cervical carcinoma); test: Cytotoxicity, MTT assay, HeLa; type: cell-based, human; details: for IC50: Homo sapiens, HeLa, read-out: IC50, HeLa
Experimental: (§1) The in vitro cytotoxicity assay toward a panel of human cancer cell lines of several clerodane diterpenoids has been well investigated. Thus, the isolates in adequate amounts were tested against MOLT-3 (acute lymphoblastic leukemia), HuCCA-1 (cholangiocarcinoma), HepG2 (hepatocellular carcinoma), A549 (lung adenocarcinoma), HeLa (cervical carcinoma), and MDA-MB-231 (triple negative breast cancer) cancer cell lines using the MTT and XTT methods. Doxorubicin and etoposide were used as positive controls.
(§2) The MTT (3-(4,5-dimethylthiazol-2-yl)-2,5-diphenyltetrazolium bromide) assay was employed for the cytotoxic evaluation against five human cancer cell lines, including HepG2, A549, MDA-MB-231, HeLa, and HuCCA-1, while the XTT (2,3-bis-(2-methoxy-4-nitro-5-sulphenyl)-(2H)-tetrazolium-5-carboxanilide) method was used for MOLT-3 cancer cell.

[2] = test system: Bacillus cereus (ATCC 11778); test: Antibacterial broth microdilution (MIC/MBC), B. cereus; type: cell-based; details: for MBC / MIC: Bacillus cereus, ATCC11778
Experimental: (§3) In addition, the isolates were also evaluated for their antibacterial activity towards three strains including Bacillus cereus (ATCC 11778), Staphylococcus aureus (ATCC 6538) and Staphylococcus epidermidis (ATCC 12228) using penicillin G and gentamicin as the antibiotic controls (Table 5). […] Finally, the inhibitory activity of aromatase by using a CYP19 screening kit was investigated. The aromatase (also called estrogen synthase) is responsible for converting the non-aromatic ring A of androgens to estrogens, which are related to the proliferation of breast cancer cells.
(§4) The tested strains, Staphylococcus aureus (S. aureus) ATCC6538, Staphylococcus epidermidis (S. epidermidis) ATCC12228, and Bacillus cereus (B. cereus) ATCC11778 were obtained from the American Type Culture Collection (ATCC).
(§5) All tested species were grown on Mueller Hinton Agar (MHA) and incubated at 37 °C for 18–24 h. The bacterial colonies suspension in sterile normal saline was diluted until they reached a 1 × 10^6 CFC/mL concentration, which was then compared to the McFarland scale. This step provided a standard bacterial suspension (1 × 10^6 CFU/mL), which was used for the following assays.
(§6) The broth microdilution technique was used for the MIC and MBC determination, which was expressed according to Clinical and Laboratory Standards Institute (CLSI) standard M07 guideline. The compounds were prepared as a stock solution by dissolving in dimethyl sulfoxide (DMSO) with the concentration ranging from 0.195 to 200 µg/mL. DMSO and penicillin G or gentamicin were used as normal and standard drug control. […] Three replicates were performed for each experiment.

[3] = test system: Staphylococcus epidermidis (ATCC 12228); test: Antibacterial broth microdilution (MIC/MBC), S. epidermidis; type: cell-based; details: ATCC12228
Experimental: as §3, §4, §5, §6

[4] = test system: MOLT-3 (acute lymphoblastic leukemia); test: Cytotoxicity, XTT method, MOLT-3; type: cell-based; details: Homo sapiens
Experimental: as §1, §2

[5] = test system: MOLT-3, HuCCA-1, HepG2, A549, HeLa, and MDA-MB-231 cancer cell lines; test: Cytotoxicity toward panel of human cancer cell lines (MTT and XTT); type: cell-based; details: for IC50: Homo sapiens, read-out: IC50 range over the cancer cell line panel
Text: The in vitro cytotoxicity assay toward a panel of human cancer cell lines of several clerodane diterpenoids has been well investigated. […] Doxorubicin and etoposide were used as positive controls.

aromatase (CYP19) = biological target: T1, aromatase (CYP19) (Homo sapiens, UniProt P11511); test: Aromatase (CYP19) inhibition assay; type: biochemical; details: for inhibition at 12.5 µM: at a concentration of 12.5 µM; for Aromatase inhibitory activity (in words): at the concentration up to 12.15 µM
T1 construct: purchased
T1 sequence (P11511 1-503): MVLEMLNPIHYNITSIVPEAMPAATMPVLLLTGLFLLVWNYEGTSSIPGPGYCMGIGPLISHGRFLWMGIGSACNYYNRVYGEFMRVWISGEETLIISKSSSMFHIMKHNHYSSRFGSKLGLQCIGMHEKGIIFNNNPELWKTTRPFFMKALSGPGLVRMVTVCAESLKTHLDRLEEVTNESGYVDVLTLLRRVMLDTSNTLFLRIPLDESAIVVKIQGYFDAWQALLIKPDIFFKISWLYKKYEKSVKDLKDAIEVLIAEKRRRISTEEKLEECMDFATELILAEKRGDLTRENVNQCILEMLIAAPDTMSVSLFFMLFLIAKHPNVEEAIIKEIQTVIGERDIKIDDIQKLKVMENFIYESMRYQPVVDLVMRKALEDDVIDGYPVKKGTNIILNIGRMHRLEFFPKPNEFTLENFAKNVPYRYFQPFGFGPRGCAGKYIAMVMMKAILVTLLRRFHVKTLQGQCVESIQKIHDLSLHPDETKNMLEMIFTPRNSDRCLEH
Experimental: as §3
The aromatase assay used a method previously designed by Stresser and co-workers.

[6] = test system: A549 (lung adenocarcinoma); test: Cytotoxicity, MTT assay, A549; type: cell-based, human; details: mean ± s.d. (n = 3); for IC50: Homo sapiens, A549, A549 cell line
Experimental: as §1, §2

[7] = test system: MDA-MB-231 (triple negative breast cancer); test: Cytotoxicity, MTT assay, MDA-MB-231; type: cell-based, human
Experimental: as §1, §2

[8] = test system: Staphylococcus aureus (ATCC 6538); test: Antibacterial broth microdilution (MIC/MBC), S. aureus; type: cell-based; details: ATCC6538
Experimental: as §3, §4, §5, §6

[9] = test system: HuCCA-1 (cholangiocarcinoma); test: Cytotoxicity, MTT assay, HuCCA-1; type: cell-based, human; details: for IC50: Homo sapiens
Experimental: as §1, §2

[10] = test system: HepG2 (hepatocellular carcinoma); test: Cytotoxicity, MTT assay, HepG2; type: cell-based, human; details: for IC50: Homo sapiens
Experimental: as §1, §2

[11] = HeLa cell line, MTT, mean ± s.d. (n = 3)
[12] = MOLT-3 cell line, XTT, mean ± s.d. (n = 3), read-out: IC50, MOLT-3
[13] = range over all cell lines tested
[14] = Homo sapiens, MDA-MB-231, MDA-MB-231 cell line, MTT, mean ± s.d. (n = 3), read-out: IC50, MDA-MB-231
[15] = MDA-MB-231 cell line, MTT, mean ± s.d. (n = 3), read-out: IC50, MDA-MB-231
[16] = HuCC-A1, HuCCA-1 cell line, MTT, mean ± s.d. (n = 3), read-out: IC50, HuCCA-1
[17] = HepG2, HepG2 cell line, MTT, mean ± s.d. (n = 3), read-out: IC50, HepG2

MIC [2] [µg/mL] | MIC [3] [µg/mL] | inhibition at 12.5 µM (aromatase (CYP19)) [%] | Aromatase inhibitory activity (in words) (aromatase (CYP19)) | MIC [8] [µg/mL] | Structure (SMILES) | IC50 [1, 11] [µM] | MBC [2] [µg/mL] | MBC [3] [µg/mL] | IC50 [4, 12] [µM] | IC50 [6] [µM] | IC50 [7, 14] [µM] | MBC [8] [µg/mL] | IC50 [9, 16] [µM] | IC50 [10, 17] [µM] | other results
12.5 (≈ 24.8 µM) | > 200 | 25 | did not show activity | > 200 | C=CC(=C)CC[C@]1(C)[C@H](C)C[C@H](OC)[C@@]23C(=C[C@H](OC(=O)[C@@H](C)CC)C[C@@H]12)[C@@H](OC)O[C@H]3OC(C)=O [Compound 11, balanspene F] | 10.3 ± 0.5 | 25 (≈ 49.5 µM) | > 200 | 5 ± 1.7 | 3 ± 0.4 | 11.4 ± 0.5 | > 200 | 3.3 ± 0.4 | 14.3 ± 1.5 | MBC, B. cereus (ATCC 11778) [2]: 25 µg/mL (≈ 49.5 µM)
> 200 | > 200 | 17 | did not show activity | > 200 | COc1cc([C@@H]2OC[C@@H]3[C@H]2CO[C@H]3c2cc(OC)c(O)c(OC)c2)cc(OC)c1O [Compound 19, (−)-syringaresinol] | – | > 200 | > 200 | 75.3 ± 4.9 | – | – | > 200 | – | – | IC50, HeLa [1, 11]: I (Inactive for cytotoxicity with < 50% inhibition at a concentration of 50 µg/mL); Cytotoxicity against all cell lines (in words) ([5]; even at 50 µg/mL): inactive; IC50, A549 ([6]; A549 cell line): I (Inactive for cytotoxicity with < 50% inhibition at a concentration of 50 µg/mL); IC50, MDA-MB-231 ([7]; MDA-MB-231 cell line, MTT, mean ± s.d. (n = 3)): I (Inactive for cytotoxicity with < 50% inhibition at a concentration of 50 µg/mL); IC50, HuCCA-1 ([9]; HuCCA-1 cell line, MTT, mean ± s.d. (n = 3)): I (Inactive for cytotoxicity with < 50% inhibition at a concentration of 50 µg/mL); IC50, HepG2 ([10]; HepG2 cell line, MTT, mean ± s.d. (n = 3)): I (Inactive for cytotoxicity with < 50% inhibition at a concentration of 50 µg/mL)
> 200 | > 200 | 0 | did not show activity | > 200 | COC1=CC(=O)C=C(OC)C1(O)CC(C)=O [Compound 20, 4-acetonyl-3,5-dimethoxy-p-quinol] | 132 ± 3.8 | > 200 | > 200 | 10 ± 3.5 | 125 ± 4.7 | 24.4 ± 1.2 | > 200 | 111 ± 2.2 | 122 ± 11.3 | –

The remaining lines, values behind:

Structure (SMILES) | MIC [2] [µg/mL] | MIC [3] [µg/mL] | inhibition at 12.5 µM (aromatase (CYP19)) [%] | Aromatase inhibitory activity (in words) (aromatase (CYP19)) | MIC [8] [µg/mL] | IC50 [1, 11] [µM] | MBC [2] [µg/mL] | MBC [3] [µg/mL] | IC50 [4, 12] [µM] | IC50 [6] [µM] | IC50 [7, 14] [µM] | MBC [8] [µg/mL] | IC50 [9, 16] [µM] | IC50 [10, 17] [µM] | other results
C=CC(=C)CC[C@]1(C)[C@H](C)C[C@H](O)[C@@]23C(=C[C@H](OC(=O)[C@@H](C)CC)C[C@@H]12)[C@@H](OC(C)=O)O[C@H]3OC(C)=O [Compound 7, isocaseamembrin E] | 6.25 (≈ 12.1 µM) | 100 (≈ 193 µM) | 0 | did not show activity | 25 (≈ 48.2 µM) | 0.9 ± 0.1 | > 200 | > 200 | 1.4 ± 0.2 | 0.3 ± 0.02 | 2 to 2.2 | 50 (≈ 96.4 µM) | 0.7 ± 0.1 | 1.9 ± 0.4 | IC50 [5, 13]: 0.3 to 2.9 µM; IC50 [7, 15]: 2 ± 0.2 µM
C=CC(=C)CC[C@]1(C)[C@H](C)C[C@H](O)[C@@]23C(=C[C@H](OC(=O)CC(C)C)C[C@@H]12)[C@@H](OC(C)=O)O[C@H]3OC(C)=O [Compound 8, corymbulosin X] | 25 (≈ 48.2 µM) | > 200 | – | – | > 200 | 1.8 ± 0.2 | 50 (≈ 96.4 µM) | > 200 | 1.2 ± 0.2 | 0.6 ± 0.1 | 2 to 2.2 | > 200 | 0.4 ± 0.1 | 2.4 ± 0.1 | IC50 [5, 13]: 0.3 to 2.9 µM; IC50 [7, 15]: 2.2 ± 0.1 µM
C=CC(=C)CC[C@]1(C)[C@H]2C[C@H](OC(=O)CC(C)C)C=C3[C@H](OC(C)=O)O[C@H](OC(C)=O)[C@@]32[C@H](OC)C[C@@H]1C [Compound 9, caseargrewiin A] | 100 (≈ 188 µM) | > 200 | 31 | did not show activity | > 200 | 5.2 ± 0.1 | 100 (≈ 188 µM) | > 200 | 3 ± 0.2 | 5 ± 0.5 | 8.1 ± 0.4 | > 200 | 5.2 ± 0.4 | 9.5 ± 0.8 | –
C=CC(C)=CCC1(C)C(C)CC(O)C23C(=CC(OC(=O)C(C)CC)CC12)C(OC(C)=O)OC3OC(C)=O (stereo not shown) [Compound 16, Grewiifopene I] | – | – | – | – | – | – | – | – | – | – | – | – | – | – | IC50 [1]: 0.8 ± 0.1 µM; IC50 ([4]; MOLT-3, read-out: IC50, MOLT-3): 1.2 ± 0.2 µM; IC50 [5]: 0.3 to 2.9 µM; IC50 ([7]; Homo sapiens, MDA-MB-231, read-out: IC50, MDA-MB-231): 2 ± 0.1 µM; IC50 ([9]; HuCC-A1, read-out: IC50, HuCCA-1): 0.7 ± 0.02 µM; IC50 ([10]; HepG2, read-out: IC50, HepG2): 2.9 µM
